Source: US20250269041A1, “Mutual Prodrugs of Cromoglicic Acid” (Samdolite Pharmaceuticals, Inc., priority 2022, published 2025)
Read-outs that look alike come from different tables or passages of the source.

Tests used:
[1] = Description: Shed snakeskin, which is a model membrane to human skin used for preliminary permeability studies due to its similarity in composition to the human stratum corneum, was used as a skin model. The solution in the receiver compartment was maintained at 37° C. and stirred at 500 rpm with a magnetic stirrer. Before each experiment, the shed snakeskin was hydrated in 7.4 pH Dulbecco's Phosphate Buffered Saline (DPBS) containing 0.1% sodium azide solution for 24 hours at room temperature.
To emulate the esterase activity of human skin, a “sandwich” of shed snakeskin from a black rat snake (Pantherophis obsoletus) and a dialysis membrane with a molecular weight cut-off of 3.5 kDa (Cole-Palmer, Spectra Por S/P 3 EW-02900-04) was designed. Recombinant Human Carboxylesterase 2/CES2 (R&D Systems, #5657-CE) at a concentration 50 μg/mL was added between the snakeskin and the dialysis membrane (FIG. 1). A diffusion area of 0.64 cm^2 and a volume of 2 mL in the donor and receiver compartments were used. The temperature in Franz cell was controlled via thermocouple probe IT-23 (World Precision Instruments, Sarasota, FL, USA) placed in receiver compartment below the membrane “sandwich” through the sampling arm. All tested compounds were solubilized in 50% polyethylene glycol 400 (PEG 400)/DPBS at 25 mg/mL. PEG 400 was used to increase the water solubility of diethyl cromoglycate, cetirizine ethyl ester and cetirizine cromoglycate.
The system was allowed to equilibrate for one hour before each experiment. […] The receiver compartment was filled with 2 mL of 50% w/w polyethylene glycol 400 in DPBS to maintain a sink condition in the receiver solution. A sample was manually taken at 1-hour intervals from the receptor compartment and replaced with fresh DPBS at each time point. The concentration of drugs and their cumulative amount was plotted against time. Each experiment with each compound was performed in triplicate. The amount of the drug in the sample was estimated spectrophotometrically (NanoDrop™ UV-Visible spectrophotometer, Thermo Fisher Scientific Inc.). Light absorption was plotted as a function of concentration and fitted with a linear regression equation.

[2] = normal pH of 7.4; cited from earlier work
[3] = black rat snake (Pantherophis obsoletus), 0 h, 25 mg/mL
[4] = black rat snake (Pantherophis obsoletus), 25 mg/mL
[5] = black rat snake (Pantherophis obsoletus), 1 h, 25 mg/mL
[6] = black rat snake (Pantherophis obsoletus), 2 h, 25 mg/mL
[7] = black rat snake (Pantherophis obsoletus), 3 h, 25 mg/mL
[8] = black rat snake (Pantherophis obsoletus), 4 h, 25 mg/mL
[9] = black rat snake (Pantherophis obsoletus), 5 h, 25 mg/mL
[10] = black rat snake (Pantherophis obsoletus), 6 h, 25 mg/mL
[11] = black rat snake (Pantherophis obsoletus), 7 h, 25 mg/mL
[12] = black rat snake (Pantherophis obsoletus), 8 h, 25 mg/mL
[13] = black rat snake (Pantherophis obsoletus), 9 h, 25 mg/mL
[14] = black rat snake (Pantherophis obsoletus), 10 h, 25 mg/mL
[15] = black rat snake (Pantherophis obsoletus), 11 h, 25 mg/mL
[16] = black rat snake (Pantherophis obsoletus), 12 h, 25 mg/mL

## CCOC(=O)COCCN1CCN(C(c2ccccc2)c2ccc(Cl)cc2)CC1 (stereo not drawn) [Cetirizine Ethyl Ester, reference compound]
[1]
  mean lag times across shed snakeskin: 0.15 to 0.25 h

## O=C(O)c1cc(=O)c2c(OCC(O)COc3cccc4oc(C(=O)O)cc(=O)c34)cccc2o1 [Cromoglicate Sodium, Cromoglicate sodium, reference compound]
[2]
  logP: −4.8
[1]; [3]
  Cumulative concentration per unit area: 0 μg/cm^2
[1]; [4]
  permeation across the shed snakeskin, times lower than the permeation of the lipophilic prodrug: 3.5-5 times
[1]; [5]
  Cumulative concentration per unit area: 5 μg/cm^2
[1]; [6]
  Cumulative concentration per unit area: 15 μg/cm^2
[1]; [7]
  Cumulative concentration per unit area: 25 μg/cm^2
[1]; [8]
  Cumulative concentration per unit area: 30 μg/cm^2
[1]; [9]
  Cumulative concentration per unit area: 45 μg/cm^2
[1]; [10]
  Cumulative concentration per unit area: 50 μg/cm^2
[1]; [11]
  Cumulative concentration per unit area: 73 μg/cm^2
[1]; [12]
  Cumulative concentration per unit area: 80 μg/cm^2
[1]; [13]
  Cumulative concentration per unit area: 93 μg/cm^2
[1]; [14]
  Cumulative concentration per unit area: 98 μg/cm^2
[1]; [15]
  Cumulative concentration per unit area: 112 μg/cm^2
[1]; [16]
  Cumulative concentration per unit area: 119 μg/cm^2

## CCOC(=O)c1cc(=O)c2c(OCC(O)COc3cccc4oc(C(=O)OCC)cc(=O)c34)cccc2o1 [Example 50, Diethyl Cromoglicate]
[1]; [3]
  Cumulative concentration per unit area: 0 μg/cm^2
[1]; [4]
  mean lag times across shed snakeskin: 0.15 to 0.25 h
[1]; [5]
  Cumulative concentration per unit area: 23 μg/cm^2
[1]; [6]
  Cumulative concentration per unit area: 55 μg/cm^2
[1]; [7]
  Cumulative concentration per unit area: 95 μg/cm^2
[1]; [8]
  Cumulative concentration per unit area: 145 μg/cm^2
[1]; [9]
  Cumulative concentration per unit area: 195 μg/cm^2
[1]; [10]
  Cumulative concentration per unit area: 235 μg/cm^2
[1]; [11]
  Cumulative concentration per unit area: 256 μg/cm^2
[1]; [12]
  Cumulative concentration per unit area: 320 μg/cm^2
[1]; [13]
  Cumulative concentration per unit area: 390 μg/cm^2
[1]; [14]
  Cumulative concentration per unit area: 435 μg/cm^2
[1]; [15]
  Cumulative concentration per unit area: 470 μg/cm^2
[1]; [16]
  Cumulative concentration per unit area: 495 μg/cm^2

## O=C(COCCN1CCN(C(c2ccccc2)c2ccc(Cl)cc2)CC1)OC(COc1cccc2oc(C(=O)O)cc(=O)c12)COc1cccc2oc(C(=O)O)cc(=O)c12 (stereo not drawn) [Example 3]
[1]
  transport compared with the permeation of lipophilic prodrugs diethyl cromoglycate and cetirizine ethyl ester: lower
[1]; [3]
  Cumulative concentration per unit area: 0 μg/cm^2
[1]; [4]
  mean lag times across shed snakeskin: 0.55 to 1.15 h
[1]; [5]
  Cumulative concentration per unit area: 2 μg/cm^2
[1]; [6]
  Cumulative concentration per unit area: 12 μg/cm^2
[1]; [7]
  Cumulative concentration per unit area: 28 μg/cm^2
[1]; [8]
  Cumulative concentration per unit area: 53 μg/cm^2
[1]; [9]
  Cumulative concentration per unit area: 89 μg/cm^2
[1]; [10]
  Cumulative concentration per unit area: 112 μg/cm^2
[1]; [11]
  Cumulative concentration per unit area: 142 μg/cm^2
[1]; [12]
  Cumulative concentration per unit area: 176 μg/cm^2
[1]; [13]
  Cumulative concentration per unit area: 215 μg/cm^2
[1]; [14]
  Cumulative concentration per unit area: 256 μg/cm^2
[1]; [15]
  Cumulative concentration per unit area: 295 μg/cm^2
[1]; [16]
  Cumulative concentration per unit area: 350 μg/cm^2
